Measurements from patent US10774071B2, “PD-1/PD-L1 inhibitors” (Gilead Sciences, Inc., priority 2018, dated 2020).
Read-outs that look alike come from different tables or passages of the source.

What was measured:
[1] = biological target: PD-L1 (Homo sapiens (Human), UniProt Q9NZQ7); experiment: PD-L1/PD-L1 dimerization biochemical protein-protein interaction assay (ALPHA); format: binding; conditions: read-out: AC50 PDL1 Dimer 1 nM
[2] = biological target: FFA1 (h) (GPR40) (Homo sapiens (Human), UniProt O14842); experiment: GPR40 functional assay, antagonist effect (intracellular Ca2+, fluorimetry); format: cell-based; conditions: stimulus linoleic acid 20000 nM; for inhibition at 10 µM: HEK293, human recombinant GPR40 in HEK-293 cells
FFA1 (h) (GPR40), sequence (O14842 whole entry): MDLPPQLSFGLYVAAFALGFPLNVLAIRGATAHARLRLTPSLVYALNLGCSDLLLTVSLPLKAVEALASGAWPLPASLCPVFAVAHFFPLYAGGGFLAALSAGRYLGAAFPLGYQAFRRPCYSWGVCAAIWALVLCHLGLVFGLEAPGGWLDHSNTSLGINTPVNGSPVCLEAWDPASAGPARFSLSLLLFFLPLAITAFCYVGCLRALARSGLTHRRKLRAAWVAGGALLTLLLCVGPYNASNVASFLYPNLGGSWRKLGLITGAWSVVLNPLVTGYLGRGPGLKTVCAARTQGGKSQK
Experimental: (§1) Select compounds were tested in a functional GRP40 assay as described in Briscoe, C. P. et al. (Brit. J. Pharmacol., (2006), 148: 619-628) to determine agonist/antagonist activity. […] Using a HEK-293 cell line transiently transduced to express GPR40, the agonist/antagonist activity of select compounds has been assessed.

[3] = biological target: FFA1 (h) (GRP40) (Homo sapiens (Human), UniProt O14842); experiment: GPR40 functional assay, agonist effect (intracellular Ca2+, fluorimetry); format: cell-based; conditions: HEK293, human recombinant GPR40 in HEK-293 cells, control 100 μM linoleic acid
FFA1 (h) (GRP40), sequence (O14842 whole entry): as above
Experimental: as §1

[4] = biological target: PD-1/PD-L1 (Homo sapiens (Human), UniProt Q9NZQ7); experiment: PD-1/PD-L1 biochemical protein-protein interaction assay (ALPHA); format: binding; conditions: read-out: IC50 PD-L1-PD1
PD-1/PD-L1, sequence (Q9NZQ7 19-238): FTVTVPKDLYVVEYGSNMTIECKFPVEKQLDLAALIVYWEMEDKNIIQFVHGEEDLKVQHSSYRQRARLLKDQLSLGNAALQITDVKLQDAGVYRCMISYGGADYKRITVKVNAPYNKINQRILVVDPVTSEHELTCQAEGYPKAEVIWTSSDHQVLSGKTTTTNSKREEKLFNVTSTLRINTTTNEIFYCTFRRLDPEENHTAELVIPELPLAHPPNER

[5] = 0.5 nM His tagged PD-L1 and 0.5 nM FLAG tagged PD-L1, Table 4A
[6] = 1st replicate, read-out: % of control agonist response, 1st
[7] = 2nd replicate, read-out: % of control agonist response, 2nd
[8] = mean, read-out: % of control agonist response, Mean
[9] = 0.3 nM His tagged PD-L1, 2.5 nM biotinylated Fc-PD-1, readings of 0.064 nM are equal to or less than 0.064 nM
[10] = 1st replicate, read-out: % inhibition of control agonist response, 1st
[11] = 2nd replicate, read-out: % inhibition of control agonist response, 2nd
[12] = mean, read-out: % inhibition of control agonist response, Mean
[13] = 0.5 nM His tagged PD-L1 and 0.5 nM FLAG tagged PD-L1, Table 4B
[14] = 0.3 nM His tagged PD-L1, 2.5 nM biotinylated Fc-PD-1, Table 3B

PD-L1, sequence (Q9NZQ7 19-238): as above
PD-L1, sequence (Q9NZQ7 19-238): as above

| Compound | AC50 [1, 13] [nM] | IC50 [4, 14] [nM] | other results |
| --- | --- | --- | --- |
| COc1nc(-c2cccc(-c3cccc4c3CC[C@@H]4Nc3nc(OC)c(CN4CC5(C(=O)O)CCC4CC5)nc3C(F)(F)F)c2Cl)ccc1CNC[C@@H]1CCC(=O)N1 [A-18, 2-((5-(((S)-4-(2-chloro-3-(6-methoxy-5-(((((S)-5-oxopyrrolidin-2-yl)methyl)amino)methyl)pyridin-2-yl)phenyl)-2,3-dihydro-1H-inden-1-yl)amino)-3-methoxy-6-(trifluoromethyl)pyrazin-2-yl)methyl)-2-azabicyclo[2.2.2]octane-4-carboxylic acid] |  |  | AC50 [1, 5]: 15.7 nM; % inhibition of control agonist response, 1st ([2]; 10 μM, human recombinant GPR40 in HEK-293 cells, 1st replicate): 8.3%; % inhibition of control agonist response, 2nd ([2]; 10 μM, human recombinant GPR40 in HEK-293 cells, 2nd replicate): 17.4%; % inhibition of control agonist response, Mean ([2]; 10 μM, human recombinant GPR40 in HEK-293 cells, mean): 12.8%; activity at 10 µM [3, 6]: -0.6%; activity at 10 µM [3, 7]: -1.9%; activity at 10 µM [3, 8]: -1.3%; IC50 [4, 9]: ≤ 0.064 nM |
| COc1nc(-c2cccc(-c3cccc4c3CC[C@@H]4Nc3nc(OC)c(CNC4(C(=O)O)CC4)cc3C(F)(F)F)c2Cl)ccc1CNC[C@@H]1CCC(=O)N1 [A-41] |  |  | AC50 [1, 5]: 7.6 nM; inhibition at 10 µM [2, 10]: 23.1%; inhibition at 10 µM [2, 11]: 13.1%; inhibition at 10 µM [2, 12]: 18.1%; activity at 10 µM [3, 6]: 1.1%; activity at 10 µM [3, 7]: 0.1%; activity at 10 µM [3, 8]: 0.6%; IC50 [4, 9]: ≤ 0.064 nM |
| COc1nc(-c2cccc(-c3cccc4c3CC[C@@H]4Oc3nc(OC)c(CNC4(C(=O)O)CC4)cc3C(F)(F)F)c2Cl)ccc1CNC[C@@H]1CCC(=O)N1 [B-36] | 3.77 | 0.064 | inhibition at 10 µM [2, 10]: 30.5%; inhibition at 10 µM [2, 11]: 17%; inhibition at 10 µM [2, 12]: 23.7%; activity at 10 µM [3, 6]: -0.4%; activity at 10 µM [3, 7]: -0.5%; activity at 10 µM [3, 8]: -0.4% |
| COc1nc(-c2cccc(-c3cccc4c3CC[C@@H]4Oc3nc(OC)c(CN4CC5(C(=O)O)CCC4CC5)nc3C)c2Cl)ccc1CNC[C@@H]1CCC(=O)N1 [B-149] | 32.4 | 0.064 | inhibition at 10 µM [2, 10]: 8%; inhibition at 10 µM [2, 11]: 15%; inhibition at 10 µM [2, 12]: 11.5%; activity at 10 µM [3, 6]: -2%; activity at 10 µM [3, 7]: -0.5%; activity at 10 µM [3, 8]: -1.2% |
| COc1nc(-c2cccc(-c3cccc4c3CC[C@@H]4Oc3nc(OC)c(CNC[C@H]4C[C@](C)(O)C4)cc3C(F)(F)F)c2Cl)ccc1CNC[C@@H]1CCC(=O)N1 [B-261] | 4.63 | 0.076 |  |
| COc1nc(-c2cccc(-c3cccc4c3CC[C@@H]4Oc3nc(OC)c(CNC[C@H]4C[C@H](O)C4)cc3C(F)(F)F)c2Cl)ccc1CNC[C@@H]1CCC(=O)N1 [B-262] | 2.2 | 0.064 |  |
| COc1nc(-c2cccc(-c3cccc4c3CC[C@@H]4Oc3nc(OC)c(CN[C@H]4C[C@](C)(O)C4)cc3C(F)(F)F)c2Cl)ccc1CNC[C@@H]1CCC(=O)N1 [B-263] | 4.94 | 0.064 |  |
| COC[C@H](NCc1cc(C(F)(F)F)c(O[C@H]2CCc3c(-c4cccc(-c5ccc(CNC[C@@H]6CCC(=O)N6)c(OC)n5)c4Cl)cccc32)nc1OC)C(=O)O [B-264] | 6.55 | 0.064 |  |
| COc1nc(-c2cccc(-c3cccc4c3CC[C@@H]4Oc3nc(OC)c(CN[C@@H](C)C(N)=O)cc3C(F)(F)F)c2Cl)ccc1CNC[C@@H]1CCC(=O)N1 [B-265] | 14.2 | 0.079 |  |
| COc1nc(-c2cccc(-c3cccc4c3CC[C@@H]4Oc3nc(OC)c(CNCC(N)=O)cc3C(F)(F)F)c2Cl)ccc1CNC[C@@H]1CCC(=O)N1 [B-266] | 28.5 | 0.251 |  |
| COc1nc(-c2cccc(-c3cccc4c3CC[C@@H]4Oc3nc(OC)c(CNCCC(=O)O)cc3C(F)(F)F)c2Cl)ccc1CNC[C@@H]1CCC(=O)N1 [B-267] | 7.26 | 0.064 |  |
| COc1nc(-c2cccc(-c3cccc4c3CC[C@@H]4Oc3nc(OC)c(CN[C@H](C(=O)O)C4CC4)cc3C(F)(F)F)c2Cl)ccc1CNC[C@@H]1CCC(=O)N1 [B-268] | 3.76 | 0.064 |  |
| CC[C@H](NCc1cc(C(F)(F)F)c(O[C@H]2CCc3c(-c4cccc(-c5ccc(CNC[C@@H]6CCC(=O)N6)c(OC)n5)c4Cl)cccc32)nc1OC)C(=O)O [B-269] | 6.13 | 0.064 |  |
| COc1nc(-c2cccc(-c3cccc4c3CC[C@@H]4Oc3nc(OC)c(CN[C@H](C(=O)O)C(C)C)cc3C(F)(F)F)c2Cl)ccc1CNC[C@@H]1CCC(=O)N1 [B-270] | 4.76 | 0.064 |  |
| COc1nc(-c2cccc(-c3cccc4c3CC[C@@H]4Oc3nc(OC)c(CN[C@@H](C)C(=O)O)cc3C(F)(F)F)c2Cl)ccc1CNC[C@@H]1CCC(=O)N1 [B-271] | 1.91 | 0.064 |  |
| COc1nc(-c2cccc(-c3cccc4c3CC[C@@H]4Oc3nc(OC)c(CNCC(=O)O)cc3C(F)(F)F)c2Cl)ccc1CNC[C@@H]1CCC(=O)N1 [B-272] | 2.26 | 0.064 |  |
